# Laboratory results as given in patent US7465738B2, “Compounds useful as promoters of SMN2” (Vertex Pharmaceuticals Incorporated, priority 2003, dated 2008).
# Test system: SMN2 promoter
# Experiment: SMN2 promoter-β-lactamase (BLA) assay in NSC-34 cells
# Assay type: cell-based, mouse
# Settings: 15 NSC-34 SMN2-promoter-BLA clones with low BLA activity
# Text: Compounds were screened for their ability to increase SMN2 gene transcription. In general the screening method of the invention involves the use of an SMN2 promoter-β-lactamase (BLA) assay in NSC-34 cells. […] This construct was transfected into the NSC-34 cells and a stable pool of SMN2-promoter-BLA cells was generated. […] Optimized protocols are presented in the procedures below. […] Subculture Protocol for and the […]-Bla Cell Line (#5.3) and the SMN2 Promoter-Bla Cell Line (#11). […] Cells were kept at a density between 50,000 and 500,000/ml and were fed every three days with DMEM 5% FCS and incubated at 37° C., 5% CO2 and 90% humidity. • b. Cells were then plated at low density (50,000 cells/ml). • c. […] Cells were fed by manually pipetting the cells, and passaging the cells 1 to 10 to a new flask. […] Standard Assay Protocol #1 for SMN2 Promoter Assays in 96-Well Plates: • e. Cells were washed twice with cold PBS by spinning down and resuspending at 250,000 cells/ml. • f. Cells were resuspended in DMEM 0% FCS at a density of 500,000 cells/ml. • g. Cells were then dispensed 100 μl cells per well of a 96-well, black wall, clear bottom assay plate (Corning Costar, Cat. # 3904). Plate can be pre-formatted with test compounds. • h. […] Cells were incubated for 1 hour in the dark at room temperature. • 6×CCF2-AM Staining Solution: • 60 μl of Sol B • 6 μl of CCF2-AM (1 mM) • 12 μl of Probenecid (1 M, Sigma, Cat # 8761) • 1 μl of Sol C • j. Assay plates were read on a fluorimeter (for example, the Cytofluor 4000 from Perceptive Biosystems) using the following two settings: 460/40 nm emission with 395/25 nm excitation, and 530/25 nm emission with 395/25 nm excitation. • k. […] Standard Assay Protocol #2 for SMN2 Promoter Assays in 96-Well Plates: • l. Cells were washed twice with cold PBS by spinning down and resuspending at 250,000 cells/ml. • m. Cells were then resuspended in DMEM 1% FCS Charcoal Dextran-treated (Hyclone, Cat # SH30038.05) at a density of […]. • n. Cells were then incubated for 24 hours at 37° C. • o. 100 μl cells per well were then dispensed in a 96-well, black wall, clear bottom assay plate (Corning Costar, Cat. # 3904). Plate can be pre-formatted with test compounds. • p. […] Cells were incubated for one hour in the dark at room temperature. • 6×CCF2-AM Staining Solution: • 60 μl of Sol B • 6 μl of CCF2-AM (1 mM) • 12 μl of Probenecid (1 M, Sigma, Cat# 8761) • 1 μl of SolC • r. Assay plates were read on a fluorimeter (for example, the Cytofluor 4000 from Perceptive Biosystems) using the following two settings: 460/40 nm emission with 395/25 nm excitation, and 530/25 nm emission with 395/25 nm excitation. • s.
row,Structure (SMILES),changes in BLA activity after treatment
1,"CC(C)Cn1c(=O)n(C)c(=O)c2[nH]cnc21 [IBMX, reference compound]",none showed changes in BLA activity

# Same assay, conditions: Mus musculus; SMN2 promoter BLA assay, NSC-34 cells, 96-well plates
row,Structure (SMILES),EC50 [µM]
1,Nc1nc(N)c2c(Sc3ccc(Cl)cc3)cccc2n1 [Compound I-2],0.53
2,Nc1nc(N)c2c(Oc3ccc(F)cc3)cccc2n1 [Compound I-3],0.15
3,CCOc1cccc2nc(N)nc(N)c12 [Compound I-6],0.6
4,"CN(C)/C=C/c1c(C=O)c2cc([N+](=O)[O-])ccc2n1C [Compound V-1, 2-((E)-2-(dimethylamino)vinyl)-1-methyl-5-nitro-1H-indole-3-carbaldehyde]",6.8

# Second part, the molecule after the results:
row,EC50 [µM],Structure (SMILES)
1,10,O=C1C(=O)N(C(=O)NC2CCCCC2)c2ccc(Br)cc21 [VI-1]
2,9,CCCN(Cc1ccc([N+](=O)[O-])cc1)c1nc(O)nc(NC2CCCC2)n1 [VIII-1]
3,3,OCCNCCCOc1cccc(Cl)c1Cl [VII-1]
4,0.25,Nc1nc(N)c2c(Oc3ccccc3)cccc2n1 [Compound I-5]

# Same assay, conditions: clone SMN2BLAClone11
row,Structure (SMILES),increase in BLA expression upon stimulation [fold]
1,"CCCC(=O)[O-].[Na+] [sodium butyrate, reference compound]",1.8
